Test results taken from ChEMBL document CHEMBL3627642 (Bioorg Med Chem, 2015).

Key:
[1] = Inhibition of thrombin-induced rabbit platelet aggregation after 4 hrs in presence of rabbit liver microsomes; design: species or system Oryctolagus cuniculus
Mus musculus = assay: Toxicity in mouse assessed as bleeding time at 22 mg/kg, po administered 90 mins before surgery measured up to 15 mins by tail bleeding test; assay type: organism-based; conditions: in vivo
Rattus norvegicus = assay: Antithrombotic activity in Sprague-Dawley rat venous thrombosis model assessed as reduction of thrombus weight administered intragastrically qd for 3 days measured 2 hrs after last dose; assay type: functional, organism-based
Prothrombin = Prothrombin (Homo sapiens, UniProt P00734); assay: Inhibition of human thrombin using tosyl-glycyl-prolyl-arginine-4-nitranilide acetate as substrate preincubated for 10 mins by spectrophotometer analysis

| SMILES | IC50 [1] [nM] | Activity (Mus musculus) | Activity (Rattus norvegicus) | IC50 (Prothrombin) [nM] |
| --- | --- | --- | --- | --- |
| CCCCCOC(=O)/N=C(\N)c1ccc(CC2c3nc4cc(C(=O)N(CCC(=O)OCC)c5ccccn5)ccc4n3CCN2C(=O)OCCCCC)cc1 (stereo not given) | 17900 |  |  |  |
| CCOC(=O)CCN(C(=O)c1ccc2c(c1)nc1n2CCN(C(=O)OCc2ccccc2)C1Cc1ccc(/C(N)=N/C(=O)OCc2ccccc2)cc1)c1ccccn1 (stereo not given) | 9660 |  |  |  |
| CCOC(=O)CCN(C(=O)c1ccc2c(c1)nc1n2CCNC1Cc1ccc(/C(N)=N/C(=O)OC(C)C)cc1)c1ccccc1 (stereo not given) | 1540 | Toxic | Dose-dependent effect |  |
| CCOC(=O)CCN(C(=O)c1ccc2c(c1)nc1n2CCN(C(=O)OC(C)C)C1Cc1ccc(/C(N)=N/C(=O)OC(C)C)cc1)c1ccccn1 (stereo not given) | 1520 |  |  |  |
| CCCCCCOC(=O)/N=C(\N)c1ccc(CC2c3nc4cc(C(=O)N(CCC(=O)OCC)c5ccccc5)ccc4n3CCN2C(=O)OCCCCCC)cc1 (stereo not given) | 910 | Non-toxic | Dose-dependent effect |  |
| CCCCCCOC(=O)/N=C(\N)c1ccc(CC2NCCn3c2nc2cc(C(=O)N(CCC(=O)OCC)c4ccccn4)ccc23)cc1 (stereo not given) | 730 | Toxic | Dose-dependent effect |  |
| CCCCCCOC(=O)/N=C(\N)c1ccc(CC2NCCn3c2nc2cc(C(=O)N(CCC(=O)OCc4nc(C)c(C)nc4C)c4ccccn4)ccc23)cc1 (stereo not given) | 640 | Non-toxic | Dose-dependent effect |  |
| CCOC(=O)CCN(C(=O)c1ccc2c(c1)nc1n2CCNC1Cc1ccc(/C(N)=N/C(=O)OCc2ccccc2)cc1)c1ccccn1 (stereo not given) | 5960 |  |  |  |
| CCOC(=O)CCN(C(=O)c1ccc2c(c1)nc1n2CCN(C(=O)OCC)C1Cc1ccc(/C(N)=N/C(=O)OCC)cc1)c1ccccn1 (stereo not given) | 3420 |  |  |  |
| CCOC(=O)CCN(C(=O)c1ccc2c(c1)nc1n2CCN(C(=O)OC(C)C)C1Cc1ccc(/C(N)=N/C(=O)OC(C)C)cc1)c1ccccc1 (stereo not given) | 860 |  | Dose-dependent effect |  |
| CCCCCCOC(=O)/N=C(\N)c1ccc(CC2NCCn3c2nc2cc(C(=O)N(CCC(=O)OCc4nc(C)c(C)nc4C)c4ccccc4)ccc23)cc1 (stereo not given) | 1210 | Toxic | Dose-dependent effect |  |
| CCOC(=O)CCN(C(=O)c1ccc2c(c1)nc1n2CCNC1Cc1ccc(/C(N)=N/C(=O)OC(C)(C)C)cc1)c1ccccn1 (stereo not given) | 3320 |  |  |  |
| CCOC(=O)CCN(C(=O)c1ccc2c(c1)nc1n2CCN(C(=O)OCC(C)C)C1Cc1ccc(/C(N)=N/C(=O)OCC(C)C)cc1)c1ccccn1 (stereo not given) | 8720 |  |  |  |
| CCCCCCOC(=O)/N=C(\N)c1ccc(CC2c3nc4cc(C(=O)N(CCC(=O)OCC)c5ccccn5)ccc4n3CCN2C(=O)OCCCCCC)cc1 (stereo not given) | 750 | Non-toxic | Dose-dependent effect |  |
| CCOC(=O)CCN(C(=O)c1ccc2c(c1)nc1n2CCNC1Cc1ccc(/C(N)=N/C(=O)OCC)cc1)c1ccccn1 (stereo not given) | 4090 |  |  |  |
| CCOC(=O)CCN(C(=O)c1ccc2c(c1)nc1n2CCNC1Cc1ccc(/C(N)=N/C(=O)OC(C)C)cc1)c1ccccn1 (stereo not given) | 870 |  |  |  |
| N=C(N)c1ccc(CC2NCCn3c2nc2cc(C(=O)N(CCC(=O)O)c4ccccn4)ccc23)cc1 (stereo not given) | 600 |  |  | 9.2 |
| CCOC(=O)CCN(C(=O)c1ccc2c(c1)nc1n2CCN(C(=O)OC(C)(C)C)C1Cc1ccc(/C(N)=N/C(=O)OC(C)(C)C)cc1)c1ccccn1 (stereo not given) | 13800 |  |  |  |
| CCCCCCOC(=O)/N=C(\N)c1ccc(CC2NCCn3c2nc2cc(C(=O)N(CCC(=O)OCC)c4ccccc4)ccc23)cc1 (stereo not given) | 1440 | Non-toxic | Dose-dependent effect |  |
| CCOC(=O)CCN(C(=O)c1ccc2c(c1)nc1n2CCNC1Cc1ccc(/C(N)=N/C(=O)OCC(C)C)cc1)c1ccccn1 (stereo not given) | 840 |  |  |  |
| CCCCCCOC(=O)NC(=N)c1ccc(NCc2nc3cc(C(=O)N(CCC(=O)OCC)c4ccccn4)ccc3n2C)cc1 [DABIGATRAN ETEXILATE] | 340 |  | Dose-dependent effect |  |
| CCCCCOC(=O)/N=C(\N)c1ccc(CC2NCCn3c2nc2cc(C(=O)N(CCC(=O)OCC)c4ccccn4)ccc23)cc1 (stereo not given) | 27200 |  |  |  |
| N=C(N)c1ccc(CC2NCCn3c2nc2cc(C(=O)N(CCC(=O)O)c4ccccc4)ccc23)cc1 (stereo not given) |  |  |  | 7.48 |
